Data published in US11358936B2, “Lysyl oxidase-like 2 inhibitors and uses thereof” (PharmAkea, Inc., priority 2015, dated 2022).
Structures can show the parent of a compound that is named as a salt.

The compounds below were run against human LOXL2 (Homo sapiens (Human), UniProt Q9Y4K0) (assay: Human LOXL2 Amine Oxidase Activity Assay (Amplex Red fluorescence)). Conditions: concentrated conditioned media from CHO cells stably expressing human LOXL2; 2 h at 37° C. preincubation; DAP substrate; read-out: IC50.
Sequence of human LOXL2 (Q9Y4K0 26-774): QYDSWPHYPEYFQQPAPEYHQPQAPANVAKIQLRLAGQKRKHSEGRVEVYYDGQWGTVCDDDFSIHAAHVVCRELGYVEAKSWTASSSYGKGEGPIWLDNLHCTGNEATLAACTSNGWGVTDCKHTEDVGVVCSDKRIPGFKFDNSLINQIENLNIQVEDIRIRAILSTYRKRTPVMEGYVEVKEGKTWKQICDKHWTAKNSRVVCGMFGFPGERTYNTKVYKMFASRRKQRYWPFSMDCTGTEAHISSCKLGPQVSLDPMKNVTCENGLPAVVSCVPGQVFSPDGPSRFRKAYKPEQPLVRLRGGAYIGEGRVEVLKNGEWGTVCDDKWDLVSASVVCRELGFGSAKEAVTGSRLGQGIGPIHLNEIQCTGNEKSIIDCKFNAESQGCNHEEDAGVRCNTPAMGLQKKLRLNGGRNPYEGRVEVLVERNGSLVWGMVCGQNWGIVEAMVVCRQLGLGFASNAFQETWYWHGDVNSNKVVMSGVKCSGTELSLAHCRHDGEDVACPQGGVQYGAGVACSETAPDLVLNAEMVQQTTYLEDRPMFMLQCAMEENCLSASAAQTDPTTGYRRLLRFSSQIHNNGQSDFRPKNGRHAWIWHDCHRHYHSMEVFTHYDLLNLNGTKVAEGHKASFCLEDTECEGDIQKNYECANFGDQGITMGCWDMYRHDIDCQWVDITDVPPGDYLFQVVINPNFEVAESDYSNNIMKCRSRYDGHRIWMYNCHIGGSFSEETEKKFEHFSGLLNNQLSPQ
Type: biochemical
Protocol: LOXL2 amine oxidase activity is evaluated by measuring Amplex Red fluorescence using 10-20× concentrated conditioned media from CHO cells stably expressing human LOXL2. To assay for amine oxidase activity, 10 μL of the concentrated conditioned media is incubated with 2 μL of test compound in DMSO and 73 μL Assay Buffer (50 mM Borate Buffer, pH8) for 2 h at 37° C. After the 2 h incubation, 5 μl of 10 mM 1,5-Diaminopentane (DAP) diluted in Assay Buffer and 10 μl of Amplex Red Mix (8.5 μl Assay Buffer+0.5 μl of 10 mM Amplex Red+1 μl of 500 U/ml Horseradish Peroxidase) are added and the plate mixed and immediately placed on the FlexStaion for fluorescence measurements. Fluorescence is read in kinetic mode every 2 min for 1 hour at excitation=544 and emission=590. The amine oxidase activity is calculated from the slope of the linear portion of the curve.
With `NCc1ccnc(-c2ccc(C(=O)N3CCC(O)(C(F)(F)F)C3)cc2)c1` (racemic) [Compound 1-2, Racemic-(4-(4-(aminomethyl)pyridin-2-yl)phenyl)(3-hydroxy-3-(trifluoromethyl)pyrrolidin-1-yl)methanone hydrochloride] the IC50 was under 300 nM.
`NCc1ccnc(-c2cccc(C(=O)N3CCC(O)(C(F)(F)F)C3)c2)c1` (racemic) [Compound 1-6, Racemic-(3-(4-(aminomethyl)pyridin-2-yl)phenyl)(3-hydroxy-3-(trifluoromethyl)pyrrolidin-1-yl)methanone hydrochloride] was tested, and the IC50 was under 300 nM.
In the case of `NCc1ccnc(Oc2ccc(C(=O)N3CCC(O)(C(F)(F)F)C3)cc2)c1` (racemic) [Compound 1-12, Racemic-4-((4-aminomethyl)pyridin-2-yl)oxy)phenyl)(3-hydroxy-3-(trifluoromethyl)pyrrolidin-1-yl)methanone hydrochloride], the IC50 is reported as under 300 nM.
In the case of `NCc1ccnc(Oc2cccc(C(=O)N3CCC(O)(C(F)(F)F)C3)c2)c1` (racemic) [Compound 1-16, Racemic-(3-((4-(aminomethyl)pyridin-2-yl)oxy)phenyl)(3-hydroxy-3-(trifluoromethyl)pyrrolidin-1-yl)methanone hydrochloride], the IC50 is reported as under 300 nM.
In the case of `NCc1ccnc(N2C[C@@H](O)[C@H](F)C2)c1` (racemic) [Compound 2-1], the IC50 is reported as over 1000 nM.
In the case of `NCc1ccnc(N2CCC(O)(C(F)(F)F)C2)c1` (racemic) [Compound 2-2, Racemic-1-(4-(Aminomethyl)pyridin-2-yl)-3-(trifluoromethyl)pyrrolidin-3-ol], the IC50 is reported as over 1000 nM.
In the case of `NCc1ccnc(C(=O)N2CCC(O)(C(F)(F)F)C2)c1` (racemic) [Compound 2-40, Racemic-(4-(aminomethyl)pyridin-2-yl)(3-hydroxy-3-(trifluoromethyl)pyrrolidin-1-yl)methanone hydrochloride], the IC50 is reported as under 300 nM.
Work on `NCc1ccnc(Oc2cccc3c2ccn3CC(=O)N2CCCC(O)(C(F)(F)F)C2)c1` (single isomer, unassigned) [Compound 2-28, (R) or (S)-2-(4-((4-(Aminomethyl)pyridin-2-yl)oxy)-1H-indol-1-yl)-1-(3-hydroxy-3-(trifluoromethyl)piperidin-1-yl)ethan-1-one hydrochloride] yielded an IC50 of under 300 nM.
`NCc1ccnc(Oc2cccc3c2ccn3CC(=O)N2CCCC(O)(C(F)(F)F)C2)c1` (single isomer, unassigned) [Compound 2-29, (R) or (S)-2-(4-((4-(aminomethyl)pyridin-2-yl)oxy)-1H-indol-1-yl)-1-(3-hydroxy-3-(trifluoromethyl)piperidin-1-yl)ethan-1-one hydrochloride] showed an IC50 of 300 to 1000 nM.
With `COCCNC(=O)c1ccc(-c2cc(CN)ccn2)cc1` [Compound 1-1, 4-(4-(Aminomethyl)pyridin-2-yl)-N-(2-methoxyethyl)benzamide hydrochloride] the IC50 was under 300 nM.
In the case of `NCc1ccnc(-c2ccc(C(=O)Nc3ccccc3)cc2)c1` [Compound 1-3, 4-(4-(Aminomethyl)pyridin-2-yl)-N-phenylbenzamide hydrochloride], the IC50 is reported as under 300 nM.
Work on `NCc1ccnc(-c2ccc(C(=O)NCc3ccccc3)cc2)c1` [Compound 1-4, 4-(4-(Aminomethyl)pyridin-2-yl)-N-benzylbenzamide hydrochloride] yielded an IC50 of under 300 nM.
For `COCCNC(=O)c1cccc(-c2cc(CN)ccn2)c1` [Compound 1-5, 3-(4-(Aminomethyl)pyridin-2-yl)-N-(2-methoxyethyl)benzamide hydrochloride], the IC50 was under 300 nM.
`NCc1ccnc(-c2cccc(C(=O)Nc3ccccc3)c2)c1` [Compound 1-7, 3-(4-(Aminomethyl)pyridin-2-yl)-N-phenylbenzamide hydrochloride] was tested, and the IC50 was under 300 nM.
In the case of `NCc1ccnc(-c2cccc(C(=O)NCc3ccccc3)c2)c1` [Compound 1-8, 3-(4-(Aminomethyl)pyridin-2-yl)-N-benzylbenzamide hydrochloride], the IC50 is reported as under 300 nM.
`Cc1ccc(Cl)cc1NC(=O)c1cccc(-c2cc(CN)ccn2)c1` [Compound 1-9, 3-(4-(Aminomethyl)pyridin-2-yl)-N-(5-chloro-2-methylphenyl)benzamide hydrochloride] showed an IC50 of under 300 nM.
For `NCc1ccnc(-c2cccc(C(=O)Nc3cc(Cl)cc4[nH]ccc34)c2)c1` [Compound 1-10, 3-(4-(Aminomethyl)pyridin-2-yl)-N-(6-chloro-1H-indol-4-yl)benzamide hydrochloride], the IC50 was under 300 nM.
Compound `COCCNC(=O)c1ccc(Oc2cc(CN)ccn2)cc1` [Compound 1-11, 4-((4-(Aminomethyl)pyridin-2-yl)oxy)-N-(2-methoxyethyl)benzamide hydrochloride] has an IC50 of 300 to 1000 nM.
`NCc1ccnc(Oc2ccc(C(=O)Nc3ccccc3)cc2)c1` [Compound 1-13, 4-((4-(Aminomethyl)pyridin-2-yl)oxy)-N-phenylbenzamide hydrochloride] showed an IC50 of under 300 nM.
For `NCc1ccnc(Oc2ccc(C(=O)NCc3ccccc3)cc2)c1` [Compound 1-14, 4-((4-(Aminomethyl)pyridin-2-yl)oxy)-N-benzylbenzamide hydrochloride], the IC50 was under 300 nM.
`COCCNC(=O)c1cccc(Oc2cc(CN)ccn2)c1` [Compound 1-15, 3-((4-(Aminomethyl)pyridin-2-yl)oxy)-N-(2-methoxyethyl)benzamide hydrochloride] gave an IC50 of under 300 nM.
Work on `NCc1ccnc(Oc2cccc(C(=O)Nc3ccccc3)c2)c1` [Compound 1-17, 3-((4-(Aminomethyl)pyridin-2-yl)oxy)-N-phenylbenzamide hydrochloride] yielded an IC50 of under 300 nM.
`NCc1ccnc(Oc2cccc(C(=O)NCc3ccccc3)c2)c1` [Compound 1-18, 3-((4-Aminomethyl)pyridin-2-yl)oxy)-N-benzylbenzamide hydrochloride] gave an IC50 of under 300 nM.
`COc1cccc(NC(=O)c2cccc(Oc3cc(CN)ccn3)c2)c1` [Compound 1-19, 3-((4-(Aminomethyl)pyridin-2-yl)oxy)-N-(3-methoxyphenyl)benzamide hydrochloride] gave an IC50 of under 300 nM.
`COc1ccc(NC(=O)c2cccc(Oc3cc(CN)ccn3)c2)cc1` [Compound 1-20, 3-((4-Aminomethyl)pyridin-2-yl)oxy)-N-(4-methoxyphenyl)benzamide hydrochloride] showed an IC50 of under 300 nM.
Compound `NCc1ccnc(Oc2cccc(C(=O)Nc3cccc(C(F)(F)F)c3)c2)c1` [Compound 1-21, 3-((4-Aminomethyl)pyridin-2-yl)oxy)-N-(3-(trifluoromethyl)phenyl)benzamide hydrochloride] has an IC50 of under 300 nM.
`NCc1ccnc(Oc2cccc(C(=O)Nc3ccc(C(F)(F)F)cc3)c2)c1` [Compound 1-22, 3-((4-(Aminomethyl)pyridin-2-yl)oxy)-N-(4-(trifluoromethyl)phenyl)benzamide hydrochloride] was tested, and the IC50 was under 300 nM.
In the case of `NCc1ccnc(Oc2cccc(C(=O)Nc3ccc(F)cc3)c2)c1` [Compound 1-23, 3-((4-Aminomethyl)pyridin-2-yl)oxy)-N-(4-fluorophenyl)benzamide hydrochloride], the IC50 is reported as under 300 nM.
With `NCc1ccnc(Oc2cccc(C(=O)Nc3ccc(F)cc3F)c2)c1` [Compound 1-24, 3-((4-Aminomethyl)pyridin-2-yl)oxy)-N-(2,4-difluorophenyl)benzamide hydrochloride] the IC50 was under 300 nM.
`NCc1ccnc(Oc2cccc(C(=O)Nc3ccc(Br)cc3)c2)c1` [Compound 1-25, 3-((4-(Aminomethyl)pyridin-2-yl)oxy)-N-(4-bromophenyl)benzamide hydrochloride] gave an IC50 of under 300 nM.
In the case of `COC(=O)c1ccc(NC(=O)c2cccc(Oc3cc(CN)ccn3)c2)cc1` [Compound 1-26, Methyl 4-(3-((4-(amindimethyl)pyridin-2-yl)oxy)benzamido)benzoate hydrochloride], the IC50 is reported as under 300 nM.
Compound `CCOC(=O)c1cccc(NC(=O)c2cccc(Oc3cc(CN)ccn3)c2)c1` [Compound 1-27, Ethyl 3-(3-((4-(aminomethyl)pyridin-2-yl)oxy)benzamido)benzoate hydrochloride] has an IC50 of under 300 nM.
`NCc1ccnc(Oc2cccc(C(=O)Nc3cccc(C(=O)O)c3)c2)c1` [Compound 1-28, 3-(3-((4-(Aminomethyl)pyridin-2-yl)oxy)benzamido)benzoic acid hydrochloride] gave an IC50 of under 300 nM.
`NCc1ccnc(Oc2cccc(C(=O)Nc3ccc(C(=O)O)cc3)c2)c1` [Compound 1-29, 4-(3-((4-(Aminomethyl)pyridin-2-yl)oxy)benzamido)benzoic acid hydrochloride] gave an IC50 of under 300 nM.
In the case of `NCc1ccnc(Oc2cccc(C(=O)NCc3ccc(F)cc3F)c2)c1` [Compound 1-30, 3-((4-(Aminomethyl)pyridin-2-yl)oxy)-N-(2,4-difluorobenzyl)benzamide hydrochloride], the IC50 is reported as under 300 nM.
Work on `NCc1ccnc(Oc2cccc(C(=O)NCc3ccc(C(F)(F)F)cc3)c2)c1` [Compound 1-31, 3-((4-(Aminomethyl)pyridin-2-yl)oxy)-N-(4-(trifluoromethyl)benzyl)benzamide hydrochloride] yielded an IC50 of under 300 nM.
`NCc1ccnc(Oc2cccc(C(=O)NCc3ccc(Br)cc3)c2)c1` [Compound 1-32, 3-((4-(Aminomethyl)pyridin-2-yl)oxy)-yl)-(4-bromobenzyl)benzamide hydrochloride] was tested, and the IC50 was under 300 nM.
For `COC(=O)c1ccc(CNC(=O)c2cccc(Oc3cc(CN)ccn3)c2)cc1` [Compound 1-33, Methyl 4-((3-((4-(aminomethyl)pyridin-2-yl)oxy)benzamido)methyl)benzoate hydrochloride], the IC50 was under 300 nM.
For `NCc1ccnc(Oc2cccc(C(=O)NCc3ccc(C(=O)O)cc3)c2)c1` [Compound 1-34, 4-((3-((4-Aminomethyl)pyridin-2-yl)oxy)benzamido)methyl)benzoic acid hydrochloride], the IC50 was under 300 nM.
